Test results published in BigSolDB 2.1.

O=Cc1cccc([N+](=O)[O-])c1
Conditions | solubility (mole fraction)
in DMF, 273.15 K | 0.324
in DMF, 275.65 K | 0.347
in DMF, 278.15 K | 0.368
in DMF, 280.65 K | 0.393
in DMF, 283.15 K | 0.419
in DMF, 285.65 K | 0.447
in DMF, 288.15 K | 0.472
in DMF, 290.65 K | 0.503
in DMF, 293.15 K | 0.528
in DMF, 295.65 K | 0.561
in DMF, 298.15 K | 0.594
in DMF, 300.65 K | 0.627
in DMF, 303.15 K | 0.66
in acetic acid, 290.65 K | 0.159
in acetic acid, 293.15 K | 0.182
in acetic acid, 295.65 K | 0.206
in acetic acid, 298.15 K | 0.235
in acetic acid, 300.65 K | 0.267
in acetic acid, 303.15 K | 0.304
in acetone, 273.15 K | 0.164
in acetone, 275.65 K | 0.184
in acetone, 278.15 K | 0.206
in acetone, 280.65 K | 0.231
in acetone, 283.15 K | 0.258
in acetone, 285.65 K | 0.289
in acetone, 288.15 K | 0.322
in acetone, 290.65 K | 0.359
in acetone, 293.15 K | 0.401
in acetone, 295.65 K | 0.445
in acetone, 298.15 K | 0.487
in acetone, 300.65 K | 0.534
in acetone, 303.15 K | 0.585
in acetonitrile, 273.15 K | 0.165
in acetonitrile, 275.65 K | 0.183
in acetonitrile, 278.15 K | 0.204
in acetonitrile, 280.65 K | 0.226
in acetonitrile, 283.15 K | 0.251
in acetonitrile, 285.65 K | 0.277
in acetonitrile, 288.15 K | 0.307
in acetonitrile, 290.65 K | 0.338
in acetonitrile, 293.15 K | 0.371
in acetonitrile, 295.65 K | 0.409
in acetonitrile, 298.15 K | 0.449
in acetonitrile, 300.65 K | 0.49
in acetonitrile, 303.15 K | 0.532
in cyclohexane, 283.15 K | 0.00147
in cyclohexane, 285.65 K | 0.00175
in cyclohexane, 288.15 K | 0.00204
in cyclohexane, 290.65 K | 0.0024
in cyclohexane, 293.15 K | 0.00283
in cyclohexane, 295.65 K | 0.00334
in cyclohexane, 298.15 K | 0.00394
in cyclohexane, 300.65 K | 0.00456
in cyclohexane, 303.15 K | 0.0053
in ethanol, 273.15 K | 0.0358
in ethanol, 275.65 K | 0.0416
in ethanol, 278.15 K | 0.048
in ethanol, 280.65 K | 0.0555
in ethanol, 283.15 K | 0.0637
in ethanol, 285.65 K | 0.0736
in ethanol, 288.15 K | 0.0844
in ethanol, 290.65 K | 0.0959
in ethanol, 293.15 K | 0.109
in ethanol, 295.65 K | 0.125
in ethanol, 298.15 K | 0.141
in ethanol, 300.65 K | 0.161
in ethanol, 303.15 K | 0.183
in ethyl acetate, 273.15 K | 0.146
in ethyl acetate, 275.65 K | 0.164
in ethyl acetate, 278.15 K | 0.185
in ethyl acetate, 280.65 K | 0.206
in ethyl acetate, 283.15 K | 0.229
in ethyl acetate, 285.65 K | 0.256
in ethyl acetate, 288.15 K | 0.285
in ethyl acetate, 290.65 K | 0.316
in ethyl acetate, 293.15 K | 0.348
in ethyl acetate, 295.65 K | 0.385
in ethyl acetate, 298.15 K | 0.425
in ethyl acetate, 300.65 K | 0.465
in ethyl acetate, 303.15 K | 0.511
in isopropanol, 273.15 K | 0.00629
in isopropanol, 275.65 K | 0.00735
in isopropanol, 278.15 K | 0.0086
in isopropanol, 280.65 K | 0.00997
in isopropanol, 283.15 K | 0.0115
in isopropanol, 285.65 K | 0.0133
in isopropanol, 288.15 K | 0.0153
in isopropanol, 290.65 K | 0.0176
in isopropanol, 293.15 K | 0.0203
in isopropanol, 295.65 K | 0.0232
in isopropanol, 298.15 K | 0.0267
in isopropanol, 300.65 K | 0.0305
in isopropanol, 303.15 K | 0.035
in methanol, 273.15 K | 0.0889
in methanol, 275.65 K | 0.103
in methanol, 278.15 K | 0.118
in methanol, 280.65 K | 0.136
in methanol, 283.15 K | 0.156
in methanol, 285.65 K | 0.178
in methanol, 288.15 K | 0.203
in methanol, 290.65 K | 0.23
in methanol, 293.15 K | 0.261
in methanol, 295.65 K | 0.295
in methanol, 298.15 K | 0.332
in methanol, 300.65 K | 0.373
in methanol, 303.15 K | 0.419
in n-butanol, 273.15 K | 0.0206
in n-butanol, 275.65 K | 0.0235
in n-butanol, 278.15 K | 0.0274
in n-butanol, 280.65 K | 0.0314
in n-butanol, 283.15 K | 0.0357
in n-butanol, 285.65 K | 0.041
in n-butanol, 288.15 K | 0.0466
in n-butanol, 290.65 K | 0.0529
in n-butanol, 293.15 K | 0.0596
in n-butanol, 295.65 K | 0.0677
in n-butanol, 298.15 K | 0.0764
in n-butanol, 300.65 K | 0.086
in n-butanol, 303.15 K | 0.0973
in n-propanol, 273.15 K | 0.0254
in n-propanol, 275.65 K | 0.0293
in n-propanol, 278.15 K | 0.0338
in n-propanol, 280.65 K | 0.0385
in n-propanol, 283.15 K | 0.0442
in n-propanol, 285.65 K | 0.0505
in n-propanol, 288.15 K | 0.0575
in n-propanol, 290.65 K | 0.0648
in n-propanol, 293.15 K | 0.0729
in n-propanol, 295.65 K | 0.0833
in n-propanol, 298.15 K | 0.0942
in n-propanol, 300.65 K | 0.106
in n-propanol, 303.152 K | 0.12
in toluene, 273.15 K | 0.0957
in toluene, 275.65 K | 0.11
in toluene, 278.15 K | 0.126
in toluene, 280.65 K | 0.144
in toluene, 283.15 K | 0.167
in toluene, 285.65 K | 0.188
in toluene, 288.15 K | 0.215
in toluene, 290.65 K | 0.245
in toluene, 293.15 K | 0.276
in toluene, 295.65 K | 0.31
in toluene, 298.15 K | 0.347
in toluene, 300.65 K | 0.385
in toluene, 303.15 K | 0.428
